Measured values published in US20220395496A1 (Hoffmann-La Roche Inc., priority 2019, published 2022).

Target: T1, human TLR7 (Homo sapiens, UniProt Q9NYK1)
T1 sequence (Q9NYK1 27-1049): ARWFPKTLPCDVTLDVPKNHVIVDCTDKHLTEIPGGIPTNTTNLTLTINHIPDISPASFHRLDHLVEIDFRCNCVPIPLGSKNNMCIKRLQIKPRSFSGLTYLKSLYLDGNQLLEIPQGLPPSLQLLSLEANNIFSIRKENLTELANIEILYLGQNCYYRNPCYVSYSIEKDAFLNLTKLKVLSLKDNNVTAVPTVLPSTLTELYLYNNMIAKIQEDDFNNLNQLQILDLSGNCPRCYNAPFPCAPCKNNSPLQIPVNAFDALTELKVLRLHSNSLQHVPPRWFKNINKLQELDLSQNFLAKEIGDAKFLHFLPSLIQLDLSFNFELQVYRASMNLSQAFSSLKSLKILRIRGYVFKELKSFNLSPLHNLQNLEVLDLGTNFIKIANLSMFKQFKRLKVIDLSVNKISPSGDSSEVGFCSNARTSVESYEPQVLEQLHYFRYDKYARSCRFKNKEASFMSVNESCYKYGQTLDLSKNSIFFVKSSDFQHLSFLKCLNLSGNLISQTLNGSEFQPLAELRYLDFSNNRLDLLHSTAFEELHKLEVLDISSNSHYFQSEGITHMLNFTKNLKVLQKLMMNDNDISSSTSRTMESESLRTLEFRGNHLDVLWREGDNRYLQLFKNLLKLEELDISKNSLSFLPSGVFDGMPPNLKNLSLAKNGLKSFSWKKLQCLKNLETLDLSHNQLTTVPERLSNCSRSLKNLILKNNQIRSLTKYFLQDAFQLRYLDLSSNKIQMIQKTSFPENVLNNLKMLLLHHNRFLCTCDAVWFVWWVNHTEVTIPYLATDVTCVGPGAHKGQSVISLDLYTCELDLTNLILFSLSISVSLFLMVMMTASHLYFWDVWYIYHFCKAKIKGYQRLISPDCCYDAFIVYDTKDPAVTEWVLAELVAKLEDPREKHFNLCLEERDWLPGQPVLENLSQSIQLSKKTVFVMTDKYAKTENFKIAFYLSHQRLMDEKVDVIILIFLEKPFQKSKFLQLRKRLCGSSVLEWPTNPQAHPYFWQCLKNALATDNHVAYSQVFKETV
Assay: HEK293-Blue-hTLR-7 cells assay (SEAP reporter, R848 stimulation)
Format: cell-based
Conditions: HEK293-Blue-hTLR7 cells, R848, 20 hrs; lowest tested concentration 0.0032
Experimental: The following tests were carried out in order to determine the activity of the compounds of this invention in HEK293-Blue-hTLR-7/8/9 cells assay.
HEK293-Blue-hTLR-7 Cells Assay:
A stable HEK293-Blue-hTLR-7 cell line was purchased from InvivoGen (Cat. #: hkb-htlr7, San Diego, Calif., USA). These cells were originally designed for studying the stimulation of human TLR7 by monitoring the activation of NF-κB. A SEAP (secreted embryonic alkaline phosphatase) reporter gene was placed under the control of the IFN-β minimal promoter fused to five NF-κB and AP-1-binding sites. The SEAP was induced by activating NF-κB and AP-1 via stimulating HEK-Blue hTLR7 cells with TLR7 ligands. Therefore the reporter expression was declined by TLR7 antagonist under the stimulation of a ligand, such as R848 (Resiquimod), for incubation of 20 hrs. The cell culture supernatant SEAP reporter activity was determined using QUANTI-Blue™ kit (Cat. #: rep-qb1, Invivogen, San Diego, Calif., USA) at a wavelength of 640 nm, a detection medium that turns purple or blue in the presence of alkaline phosphatase.
HEK293-Blue-hTLR7 cells were incubated at a density of 250,000˜450,000 cells/mL in a volume of 170 μL in a 96-well plate in Dulbecco's Modified Eagle's medium (DMEM) containing 4.5 g/L glucose, 50 U/mL penicillin, […], […], 2 mM L-glutamine, 10% (v/v) heat-inactivated fetal bovine serum with addition of 20 μL test compound in a serial dilution in the presence of final DMSO at 1% and 10 μL of 20 uM R848 in above DMEM, perform incubation under 37° C. in a CO2 incubator for 20 hrs. Then 20 μL of the supernatant from each well was incubated with 180 μL Quanti-blue substrate solution at 37° C. for 2 hrs and the absorbance was read at 620-655 nm using a spectrophotometer. The signalling pathway that TLR7 activation leads to downstream NF-κB activation has been widely accepted, and therefore similar reporter assay was modified for evaluating TLR7 antagonist.

Compound | IC50
C[C@H]1C[C@@H](NCc2ccccc2)CN(c2ccc(C#N)c3ncccc23)C1 [Example R1, reference compound] | 89 nM
C[C@H]1C[C@@H](N2Cc3ccccc3C2)CN(c2ccc(C#N)c3ncccc23)C1 [Example R2, reference compound] | 48 nM

Further lines, results first:

IC50 | Compound
8 nM | C[C@H]1C[C@@H](NCc2cnc(N3CCN[C@@H](C)C3)nc2)CN(c2ccc(C#N)c3ncccc23)C1 [Example 29, 5-[(3S,5R)-3-methyl-5-[[2-[(3S)-3-methylpiperazin-1-yl]pyrimidin-5-yl]methylamino]-1-piperidyl]quinoline-8-carbonitrile]
16 nM | C[C@H]1C[C@@H](NCc2ccc3c(n2)CCNC3)CN(c2ccc(C#N)c3ncccc23)C1 [Example 30, 5-[(3S,5R)-3-methyl-5-(5,6,7,8-tetrahydro-1,6-naphthyridin-2-ylmethylamino)-1-piperidyl]quinoline-8-carbonitrile]
≤ 3 nM | C[C@H]1C[C@@H](NCc2cnc(N3CCNCC3)cn2)CN(c2ccc(C#N)c3ncccc23)C1 [Example 31, 5-[(3S,5R)-3-methyl-5-[(5-piperazin-1-ylpyrazin-2-yl)methylamino]-1-piperidyl]quinoline-8-carbonitrile]
